From patent publication US20240191211A1, “BIOLUMINESCENCE-TRIGGERED PHOTOCATALYTIC LABELING” (Promega Corporation, priority 2022, published 2024)
Several values for one entry are separate records, joined by “and”; a condition that tells them apart may be missing. Equal values may be shown once.

Experiments:
[1] = system: K562 cell lysate depleted of biotinylated proteins; experiment: Photocatalytic protein labeling with azide-biotin analogs driven by HT178-cpNLuc-179:Ir-9049 in K562 lysate; assay type: biochemical; conditions: for light-independent background: 45 minutes incubation; for light-dependent background: LED 455 nm 10 minutes versus bioluminescence 20 minutes
From the text: To evaluate labeling efficiency, samples were collected, resolved on SDS-PAGE, transferred to a nitrocellulose membrane, and analyzed as described in Example 1. Unlike diazirene, light independent as well as light-dependent background was apparent for both LED and bioluminescence. […] These longer-lived intermediates can diffuse further before being quenched by water resulting in overall greater labeling radius and increased light-dependent background.
The aryl-azide-biotin analogs were further evaluated for efficiency and specificity of bioluminescence-triggered photocatalytic protein labeling as well as light-independent background (FIG. 21D). […] Samples were then collected, resolved on SDS-PAGE, transferred to a nitrocellulose membrane, and analyzed as described in Example 1. […] In addition, several substitutions to the phenyl ring increased labeling specificity to different extent likely by impeding the generation-kinetics and/or lifetime of the reactive intermediates resulting with an overall smaller labeling radius.
Subsequently, LED-triggered photocatalytic labeling of the proximal HT178-cpNLuc-179 was detected for all three analogs albeit with high light-dependent background. […] In addition, lifetime of photogenerated reactive intermediates resulted with a range of labeling specificities that would be useful for different applications designed to label a specific protein versus a neighboring environment.
The structures of the vinyl-naphthyl-azide-biotins and vinyl-quinoline-azide-biotins are shown in FIG. 26A, and their syntheses are included in Example 13. Absorbance profiles for 200 μM activatable labels in 2% DMSO were monitored on a SPARK multimode plate reader (FIG. 26 B-C). […] The naphthyl-azide analogs were further evaluated for their capacity to undergo bioluminescence-triggered photocatalytic protein labeling as well as for their light-dependent, light-independent, and catalyst-independent backgrounds (FIG. 26D). […] Bioluminescence was induced upon treatment with 100 μM fluorofurimazine for 20 minutes. To evaluate labeling efficiencies, samples were collected, resolved on SDS-PAGE, transferred to nitrocellulose membranes, and analyzed as described in Example 1. […] Furthermore, a methyl substitution on the vinyl group designed to inhibit Michael addition reduced background, especially for 9615, and increased labeling specificity. This reduced background was generally associated with a blue-shifted absorbance relative to the equivalent vinyl-naphthyl-azide analog.

[2] = Absorbance profile of photoreactive-biotins; assay type: physicochemical
Experimental: Absorbance profiles for 4 mM phenyl-diazirine-biotin and 20-fold lower concentration of phenyl-azide-biotin (i.e., 200 µM) in 8% or 1% DMSO, respectively, were monitored on a SPARK multimode plate reader (FIG. 20B).
Experiments were conducted during development of embodiments herein to explore structural modifications to the phenyl-azide moiety that could decrease the lifetime of its photogenerated intermediates thereby reducing light-dependent background and increasing labeling specificity. Modifications causing red shift absorbance and subsequently lower triplet state energy thereby enabling more efficient bioluminescence-triggered photocatalytic activation were also explored. […]
The structures of the vinyl-naphthyl-azide-biotins and vinyl-quinoline-azide-biotins are shown in FIG. 26A, and their syntheses are included in Example 13. Absorbance profiles for 200 μM activatable labels in 2% DMSO were monitored on a SPARK multimode plate reader (FIG. 26 B-C). […] The naphthyl-azide analogs were further evaluated for their capacity to undergo bioluminescence-triggered photocatalytic protein labeling as well as for their light-dependent, light-independent, and catalyst-independent backgrounds (FIG. 26D). […] To evaluate labeling efficiencies, samples were collected, resolved on SDS-PAGE, transferred to nitrocellulose membranes, and analyzed as described in Example 1. […]

DNA and RNA = experiment: LED-triggered singlet oxygen-dependent labeling of DNA and RNA; assay type: biochemical; conditions: compared to Ir-9049 driven activation of vinyl-naphthyl-azides and vinyl-quinoline-azides
Experimental: Plates remained in the dark (control) or irradiated at 455 nm (2% LED; ˜1.6 W) for 20 minutes using Efficiency Aggregators biophotoreactor. To evaluate covalent crosslinking efficiencies, reactions were cleaned from non-crosslinked activatable labels using Zeba column (ThermoFisher) before being spotted on nitrocellulose membranes using a slot blot apparatus. Membranes were blocked with 5% BSA (Promega) in TBST for 1 hour at room temperature and then incubated overnight at 4° C. with anti-biotin antibody (Invitrogen) in TBST. Next day, membranes were washed three times with TBST and then incubated for an hour with a secondary anti-goat-HRP-antibody (Jackson laboratories). Following three washes in TBST, membranes were treated with ECL substrate (Promega) and scanned on the chemiluminescence channel to detect DNA or RNA labeled with biotin.

FKBP-HiBiT = experiment: Photocatalytic labeling upon complementation of FKBP-HiBiT with LgBiT-HaloTag:Ir-9049; assay type: biochemical; conditions: HEK293 cell lysate; LED, furimazine or fluorofurimazine
Experimental: HEK293 cell lysate with estimated expression of 2000 nM FKBP-HiBiT was serially diluted into control HEK293 cell lysate to generate 4× lysate solutions with expression levels of 960 nM, 480 nM, 240 nM, and […] while maintaining constant concentration of total proteins. […] Following treatment with 10× diazirine-biotin at a final concentration of […], the UV-transparent plates were subjected to 455 nm radiation at 0-3.2 W for 15 min (Efficiency Aggregators biophotoreactor), and the white plate were further treated for 30 minutes with either furimazine or fluorofurimazine at a final concentration of 100 µM while control wells remained untreated. Samples were then collected, resolved on SDS-PAGE, transferred to a nitrocellulose membrane, and analyzed as described in Example 1. Light-dependent labeling of both LgBiT-HaloTag and FKBP-HiBiT were detected upon radiation or treatment with either furimazine or fluorofurimazine.

[3] = system: K562 cell lysate depleted of biotinylated proteins; experiment: Bioluminescence-triggered photocatalytic protein labeling with diazirine-biotin in K562 lysate; assay type: biochemical
Experimental: The two fusions orientations were further tethered to chloroalkane-catalyst conjugates and compared for their capacity to drive bioluminescence-triggered photocatalytic protein labeling (FIG. 16B). […] Bioluminescence was induced upon treatment with 10× fluorofurimazine at a final concentration of 100 µM while control wells remained untreated. Following a 15 minutes incubation, samples were collected, resolved on SDS-PAGE, transferred to a nitrocellulose membrane, and analyzed as described in Example 1. […]
Reactions comprising 100 μM diazirine-biotin, 0.1 mg/mL K562 cell lysate depleted of biotinylated proteins, and 60 nM conjugate were assembled in TBS pH 7.5 within wells of a white 96-well plate. […] Following a 15 minutes incubation, samples were collected, resolved on SDS-PAGE, transferred to a nitrocellulose membrane, and analyzed as described in Example 1. […]
This example summarizes the optimization of the bioluminescent photocatalytic system that provided an overall 900-fold increase in bioluminescence-triggered photocatalytic protein labeling (FIG. 18). […] Following a 20-minutes incubation, samples were collected, resolved on SDS-PAGE, transferred to a nitrocellulose membrane, and analyzed as described in Example 1 (FIG. 18A). […]

For [N-]=[N+]=Nc1ccc2cc(C(=O)NCCOCCOCCOCCOCCNC(=O)CCCC[C@@H]3SC[C@@H]4NC(=O)N[C@@H]43)ccc2c1 [Compound 9043], the light-independent background [1] was “significantly decreased” and the “absorbance λmax” value ([2]; 200 μM in 2% DMSO) was 255 nm and 305 nm.
In the case of [N-]=[N+]=Nc1ccc(C(=O)NCCOCCOCCOCCOCCNC(=O)CCCC[C@@H]2SC[C@@H]3NC(=O)N[C@@H]32)cc1 [Compound 9069], the “labeling of proximal model protein and background” value ([1]; LED or bioluminescence, NanoLuc-HaloTag:Ir-9049 or HT178-cpNLuc-179:Ir-9049) is reported as “relatively high background”.
In the case of O=C(NCCOCCOCCCCCCCl)OCCOCCOCCOCCNC(=O)c1ccc2c(c1)C(=O)OC21c2ccc(O)c(Br)c2Oc2c1ccc(O)c2Br [PS-9850], the “nucleic acid labeling via singlet oxygen generation” value (DNA and RNA) is reported as “lower efficiencies”.
For C/C(=C\C(=O)NCCOCCOCCOCCOCCNC(=O)CCCC[C@@H]1SC[C@@H]2NC(=O)N[C@@H]21)c1ccc(N=[N+]=[N-])c(C#N)c1 [Compound 9422, N-((E)-18-(4-azido-3-cyanophenyl)-16-oxo-3,6,9,12-tetraoxa-15-azanonadec-17-en-1-yl)-5-((3aS,4S,6aR)-2-oxohexahydro-1H-thieno[3,4-d]imidazol-4-yl)pentanamide], the light-independent background [1] was “significantly decreased” and the light-dependent background [1] was “significantly reduced light-dependent background”.
For Nc1cccc(-c2cn3c(=O)c(Cc4ccco4)nc-3c(Cc3ccccc3F)[nH]2)c1F [fluorofurimazine], the “labeling of LgBiT-HaloTag and FKBP-HiBiT” value (FKBP-HiBiT) was “Highest labeling”, the “increase in total light output” value ([3]; filtered luminescence 610 nm/LP accumulated over 20 minutes, versus furimazine) was 5 fold and the “increase in protein labeling” value ([3]; relative to preceding optimization step, 20 minutes) was 5 fold.
In the case of [N-]=[N+]=Nc1ccc(C(=O)NCCOCCOCCOCCOCCNC(=O)CCCC[C@@H]2SC[C@@H]3NC(=O)N[C@@H]32)c(O)c1 [Compound 9046], the light-independent background [1] is reported as “significantly decreased”.
In the case of C/C(=C\C(=O)NCCOCCOCCOCCOCCNC(=O)CCCC[C@@H]1SC[C@@H]2NC(=O)N[C@@H]21)c1ccc(N=[N+]=[N-])cc1 [Compound 9162], the light-independent background [1] is reported as “significantly decreased”, the light-dependent background [1] is reported as “highest light-dependent background” and the red shift absorbance ([2]; aryl-azide analogs compared to phenyl-azide-biotin 9069) is reported as 20 nm.
